Columns and labels:
Assay in all cases: Paddy pot test of herbicidal effect, water surface application of wettable powder
Assay type in all cases: in vivo
Settings in all cases: applied onto water surface 3 days after sowing, examined after 30 days
[1] = test system: Echinochloa oryzicola Vasing
Procedure: (§1) A paddy field soil was filled in a plastic pot having an area of 1/5000 are. Beginning of irrigation, fertilizer application and puddling were conducted. Then, seeds of Echinochloa oryzicola Vasing, Monochoria vaginalis Presl var. plan-taginea (Roxb.) Solms-Lau. and Scirpus juncoides Roxb. were sowed at a depth of 0.5 cm, and submerging was conducted so as to give a water depth of 4 cm. 3 days after the sowing, the wettable powder prepared as in the formulation 1 was diluted with water and dropwise added onto the water surface so that the active ingredient amount (g/10 are) added became the level shown in Table 2. Then, breeding was made at room temperature and, after 30 days, herbicidal effect was examined according to the yardstick shown in Table 1.

[2] = test system: Monochoria vaginalis Presl var. plan-taginea (Roxb.) Solms-Lau.
Procedure: as §1

Scirpus juncoides Roxb. = test system: Scirpus juncoides Roxb.
Procedure: as §1

Structure (SMILES) | Herbicidal effect (degree of growth control) index, Echinochloa oryzicola ([1]; dose 0.04 g ai/10 a) | Herbicidal effect (degree of growth control) index, Echinochloa oryzicola ([1]; dose 0.08 g ai/10 a) | Herbicidal effect (degree of growth control) index, Echinochloa oryzicola ([1]; dose 0.16 g ai/10 a) | Herbicidal effect (degree of growth control) index, Echinochloa oryzicola ([1]; dose 0.32 g ai/10 a) | Herbicidal effect (degree of growth control) index, Monochoria vaginalis ([2]; dose 0.04 g ai/10 a) | Herbicidal effect (degree of growth control) index, Monochoria vaginalis ([2]; dose 0.08 g ai/10 a) | Herbicidal effect (degree of growth control) index, Monochoria vaginalis ([2]; dose 0.16 g ai/10 a) | Herbicidal effect (degree of growth control) index, Monochoria vaginalis ([2]; dose 0.32 g ai/10 a) | Herbicidal effect (degree of growth control) index, Scirpus juncoides (Scirpus juncoides Roxb.; dose 0.04 g ai/10 a) | Herbicidal effect (degree of growth control) index, Scirpus juncoides (Scirpus juncoides Roxb.; dose 0.08 g ai/10 a) | Herbicidal effect (degree of growth control) index, Scirpus juncoides (Scirpus juncoides Roxb.; dose 0.16 g ai/10 a) | Herbicidal effect (degree of growth control) index, Scirpus juncoides (Scirpus juncoides Roxb.; dose 0.32 g ai/10 a)
COCc1cccc(C(O)c2nc(OC)cc(OC)n2)c1NS(=O)(=O)C(F)F (racemic) [compound 2, (RS)-2′-(4,6-dimethoxypyrimidin-2-yl)hydroxymethyl-6′-methoxymethyl-1,1-difluoromethanesulfonanilide, reference compound] | 1 (Herbicidal effect of 10% inclusive to 20% exclusive) | 3 (Herbicidal effect of 30% inclusive to 40% exclusive) | 5 (Herbicidal effect of 50% inclusive to 60% exclusive) | 7 (Herbicidal effect of 70% inclusive to 80% exclusive) | 0 (Herbicidal effect of less than 10%) | 0 (Herbicidal effect of less than 10%) | 9 (Herbicidal effect of 90 inclusive to 100% exclusive) | 10 (Herbicidal effect of 100% control) | 2 (Herbicidal effect of 20% inclusive to 30% exclusive) | 8 (Herbicidal effect of 80% inclusive to 90% exclusive) | 9 (Herbicidal effect of 90 inclusive to 100% exclusive) | 10 (Herbicidal effect of 100% control)
COCc1cccc([C@@H](O)c2nc(OC)cc(OC)n2)c1NS(=O)(=O)C(F)F [compound 1, (R)-2′-(4,6-dimethoxypyrimidin-2-yl)hydroxymethyl-6′-methoxymethyl-1,1-difluoromethanesulfonanilide] | 1 (Herbicidal effect of 10% inclusive to 20% exclusive) | 6 (Herbicidal effect of 60% inclusive to 70% exclusive) | 9 (Herbicidal effect of 90 inclusive to 100% exclusive) | 9 (Herbicidal effect of 90 inclusive to 100% exclusive) | 0 (Herbicidal effect of less than 10%) | 9 (Herbicidal effect of 90 inclusive to 100% exclusive) | 10 (Herbicidal effect of 100% control) | 10 (Herbicidal effect of 100% control) | 7 (Herbicidal effect of 70% inclusive to 80% exclusive) | 9 (Herbicidal effect of 90 inclusive to 100% exclusive) | 10 (Herbicidal effect of 100% control) | 10 (Herbicidal effect of 100% control)
COCc1cccc([C@H](O)c2nc(OC)cc(OC)n2)c1NS(=O)(=O)C(F)F [compound 3, (S)-2′-(4,6-dimethoxypyrimidin-2-yl)hydroxyl-methyl-6′-methoxymethyl-1,1-difluoromethanesulfonanilide] | – | – | – | 0 (Herbicidal effect of less than 10%) | – | – | – | 0 (Herbicidal effect of less than 10%) | – | – | – | 0 (Herbicidal effect of less than 10%)

— patent US20110178299A1, “OPTICALLY ACTIVE DIFLUOROMETHANESULFONANILIDE DERIVATIVE AND HERBICIDE” (Kumiai Chemical Industry Co., Ltd., priority 2008, published 2011)
